Experimental data from US9758561B2 (priority 2014, dated 2017).
≈ marks a conversion by molar mass, not a printed value. Like-named read-outs stand apart in the source and are kept apart here.

Tests used:
[1] = Solubility testing in buffer (HPLC-UV); format: physicochemical
Experimental: Prior to the testing of solubility and stability of a peptide batch, its purity (HPLC-UV) was determined. […] Therefore, solutions from solid samples were prepared in different buffer systems with a concentration of 10 mg/mL compound based on the previously determined % purity. HPLC-UV was performed after 2 h of gentle agitation from the supernatant, which was obtained by 20 min of centrifugation at 4500 rpm. […] This analysis also served as starting point (t0) for the stability testing.

[2] = Stability testing in solution, 7 days at 40° C. (HPLC-UV); format: physicochemical
Experimental: After that time course, the sample was centrifuged for 20 min at 4500 rpm and 0.2 μL of the supernatant were analysed with HPLC-UV.
For determination of the amount of the remaining peptide, the peak areas of the target compound at t0 and t7 were compared, resulting in “% remaining peptide”, following the equation % remaining peptide=[(peak area peptide t7)×100]/peak area peptide t0.
The stability is expressed as “% remaining peptide”.

human GLP-1 receptor = molecular target: T1, human GLP-1 receptor (Homo sapiens, UniProt P43220); assay: cAMP response of HEK-293 cells stably expressing human GLP-1 receptor (HTRF); format: cell-based; settings: Table 6; read-out: EC50 hGLP-1R
T1 construct: expressed in transfected cells; host or cells: HEK-293
Experimental: For preparation, cells were split into T175 culture flasks and grown overnight to near confluency in medium (DMEM/10% FBS). Medium was then removed and cells washed with PBS lacking calcium and magnesium, followed by proteinase treatment with accutase (Sigma-Aldrich cat. no. A6964). Detached cells were washed and resuspended in assay buffer (1×HBSS; 20 mM HEPES, 0.1% BSA, 2 mM IBMX) and cellular density determined. They were then diluted to 400000 cells/ml and 25 μl-aliquots dispensed into the wells of 96-well plates. For measurement, 25 μl of test compound in assay buffer was added to the wells, followed by incubation for 30 minutes at room temperature. […] Potencies of peptidic compounds at the GLP-1, glucagon and GIP receptors were determined by exposing cells expressing human glucagon receptor (hGlucagon R), human GIP receptor (hGIP-R) or human GLP-1 receptor (hGLP-1R) to the listed compounds at increasing concentrations and measuring the formed cAMP as described in Methods.

T1 sequence (P43220 24-463): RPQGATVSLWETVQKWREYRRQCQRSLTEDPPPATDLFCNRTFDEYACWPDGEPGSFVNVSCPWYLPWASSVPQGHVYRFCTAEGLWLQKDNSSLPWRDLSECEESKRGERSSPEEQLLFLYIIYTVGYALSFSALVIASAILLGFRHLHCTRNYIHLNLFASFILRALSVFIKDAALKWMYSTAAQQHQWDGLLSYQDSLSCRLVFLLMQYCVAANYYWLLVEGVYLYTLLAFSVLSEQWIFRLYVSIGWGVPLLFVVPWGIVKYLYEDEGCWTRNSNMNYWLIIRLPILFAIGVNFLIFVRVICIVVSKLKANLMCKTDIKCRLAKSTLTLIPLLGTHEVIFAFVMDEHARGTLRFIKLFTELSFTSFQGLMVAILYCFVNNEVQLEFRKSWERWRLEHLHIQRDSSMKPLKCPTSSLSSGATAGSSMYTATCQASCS

Compound | solubility at 2 h ([1]; pH 4.5, target concentration 10 mg/ml, read-out: solubility pH 4.5) [µg/mL] | solubility at 2 h ([1]; pH 7.4, target concentration 10 mg/ml, read-out: solubility pH 7.4) [µg/mL] | Stability pH 4.5 ([2]; pH 4.5, 7 days at 40° C. in solution) [% remaining peptide] | Stability pH 7.4 ([2]; pH 7.4, 7 days at 40° C. in solution) [% remaining peptide] | EC50 (human GLP-1 receptor) [pM]
CCCCCCCCCCCCCCCC(=O)N[C@@H](CCC(=O)N[C@@H](CCC(=O)NCCCC[C@H](NC(=O)[C@H](CCC(N)=O)NC(=O)[C@H](CCCCN)NC(=O)[C@H](CO)NC(=O)[C@H](CC(C)C)NC(=O)[C@H](CC(=O)O)NC(=O)[C@H](CO)NC(=O)[C@@H](NC(=O)[C@H](Cc1ccccc1)NC(=O)[C@@H](NC(=O)CNC(=O)[C@H](CCC(N)=O)NC(=O)[C@@H](CO)NC(=O)[C@@H](N)Cc1c[nH]cn1)[C@@H](C)O)[C@@H](C)O)C(=O)N[C@@H](CC(=O)O)C(=O)N[C@@H](CCC(=O)O)C(=O)N[C@@H](CCC(=O)O)C(=O)N[C@@H](C)C(=O)N[C@@H](C)C(=O)N[C@@H](CCCNC(=N)N)C(=O)N[C@@H](CC(C)C)C(=O)N[C@@H](Cc1ccccc1)C(=O)N[C@H](C(=O)N[C@@H](CCC(=O)O)C(=O)N[C@@H](Cc1c[nH]c2ccccc12)C(=O)N[C@@H](CC(C)C)C(=O)NC(C)(C)C(=O)N[C@@H](C)C(=O)N[C@H](C)C(=O)NCC(=O)N1CCC[C@H]1C(=O)N[C@@H](CO)C(=O)N[C@@H](CO)C(=O)NCC(=O)N[C@@H](C)C(=O)N1CCC[C@H]1C(=O)N1CCC[C@H]1C(=O)N1CCC[C@H]1C(=O)N[C@@H](CO)C(N)=O)[C@@H](C)CC)C(=O)O)C(=O)O [SEQ ID NO: 12, H-dSer-Q-G-T-F-T-S-D-L-S-K-Q-K(γE-γE-x53)-D-E-E-A-A-R-L-F-I-E-W-L-Aib-A-dAla-G-P-S-S-G-A-P-P-P-S-NH2] | 2000 (≈ 435 µM) | > 8000 | 85.6 | 90.6 | 
CCCCCCCCCCCCCCCC(=O)N[C@@H](CCC(=O)N[C@@H](CCC(=O)NCCCC[C@H](NC(=O)[C@H](CCC(N)=O)NC(=O)[C@H](CCCCN)NC(=O)[C@H](CO)NC(=O)[C@H](CC(C)C)NC(=O)[C@H](CC(=O)O)NC(=O)[C@H](CO)NC(=O)[C@@H](NC(=O)[C@H](Cc1ccccc1)NC(=O)[C@@H](NC(=O)CNC(=O)[C@H](CCC(N)=O)NC(=O)[C@@H](CO)NC(=O)[C@@H](N)Cc1c[nH]cn1)[C@@H](C)O)[C@@H](C)O)C(=O)N[C@@H](CC(=O)O)C(=O)N[C@@H](CCC(=O)O)C(=O)N[C@@H](CCC(=O)O)C(=O)N[C@@H](C)C(=O)N[C@@H](C)C(=O)N[C@@H](CCCNC(=N)N)C(=O)N[C@@H](CC(C)C)C(=O)N[C@@H](Cc1ccccc1)C(=O)N[C@H](C(=O)N[C@@H](CCC(=O)O)C(=O)N[C@@H](Cc1c[nH]c2ccccc12)C(=O)N[C@@H](CC(C)C)C(=O)NC(C)(C)C(=O)N[C@@H](CO)C(=O)NCC(=O)NCC(=O)N1CCC[C@H]1C(=O)N[C@@H](CO)C(=O)N[C@@H](CO)C(=O)NCC(=O)N[C@@H](C)C(=O)N1CCC[C@H]1C(=O)N1CCC[C@H]1C(=O)N1CCC[C@H]1C(=O)N[C@@H](CO)C(N)=O)[C@@H](C)CC)C(=O)O)C(=O)O [SEQ ID NO: 15, H-dSer-Q-G-T-F-T-S-D-L-S-K-Q-K(γE-γE-x53)-D-E-E-A-A-R-L-F-I-E-W-L-Aib-S-G-G-P-S-S-G-A-P-P-P-S-NH2] |  |  |  |  | 1.8
